In patent US10011573B2, “Human androgen receptor DNA-binding domain (DBD) compounds as therapeutics and methods for their use” (The University of British Columbia, priority 2014, dated 2018):
Entries after “also recorded” stand apart in the source; their conditions may differ.

What was measured:
[1] = test system: LNCaP xenograft; assay: Castration-resistant LNCaP xenografts in mice; conditions: 100 mg/kg i.p. twice daily, 4 weeks
[2] = Stability in media; assay type: physicochemical
[3] = molecular target: T1, AR binding to PSA and FKBP5 enhancer (Homo sapiens, UniProt P10275, T878A); assay: Chromatin immunoprecipitation (ChIP) in LNCaP cells; assay type: cell-based; conditions: R1881, 24 h
T1 construct: endogenous in cells; host or cells: LNCaP (LN-ARR2PB-eGFP reporter line for A1; parental LNCaP for ChIP)
T1 sequence (P10275 whole entry T878A): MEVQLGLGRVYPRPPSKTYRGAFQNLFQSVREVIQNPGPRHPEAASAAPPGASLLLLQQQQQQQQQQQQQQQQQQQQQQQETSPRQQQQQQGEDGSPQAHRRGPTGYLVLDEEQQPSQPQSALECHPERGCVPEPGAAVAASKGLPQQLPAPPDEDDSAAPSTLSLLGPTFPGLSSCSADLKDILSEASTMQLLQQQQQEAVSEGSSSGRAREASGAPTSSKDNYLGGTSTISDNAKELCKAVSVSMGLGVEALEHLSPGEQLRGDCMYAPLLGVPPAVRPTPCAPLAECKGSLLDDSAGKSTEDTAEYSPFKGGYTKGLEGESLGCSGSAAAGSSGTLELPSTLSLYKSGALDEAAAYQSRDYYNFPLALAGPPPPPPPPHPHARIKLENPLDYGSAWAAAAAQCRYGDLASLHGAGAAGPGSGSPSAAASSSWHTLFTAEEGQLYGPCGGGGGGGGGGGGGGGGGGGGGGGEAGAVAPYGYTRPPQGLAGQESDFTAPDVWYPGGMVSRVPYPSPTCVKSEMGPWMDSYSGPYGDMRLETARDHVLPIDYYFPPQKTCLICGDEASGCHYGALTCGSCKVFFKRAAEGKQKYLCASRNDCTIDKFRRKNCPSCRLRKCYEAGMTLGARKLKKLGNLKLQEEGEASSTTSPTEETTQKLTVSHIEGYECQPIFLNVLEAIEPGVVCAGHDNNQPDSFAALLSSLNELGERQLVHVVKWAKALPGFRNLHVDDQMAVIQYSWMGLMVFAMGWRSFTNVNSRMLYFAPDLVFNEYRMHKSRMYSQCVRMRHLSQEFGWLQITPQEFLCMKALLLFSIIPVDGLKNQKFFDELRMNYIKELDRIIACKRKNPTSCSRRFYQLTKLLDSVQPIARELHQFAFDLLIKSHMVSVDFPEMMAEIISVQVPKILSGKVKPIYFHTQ

[4] = molecular target: T2, AR-DBD+hinge / ARE dsDNA (Homo sapiens, UniProt P10275); assay: EMSA (gel shift) assay; assay type: biochemical; set-up: His6 (N); made in house; host or cells: E. coli BL21 (DE3)
T2 sequence (P10275 558-689): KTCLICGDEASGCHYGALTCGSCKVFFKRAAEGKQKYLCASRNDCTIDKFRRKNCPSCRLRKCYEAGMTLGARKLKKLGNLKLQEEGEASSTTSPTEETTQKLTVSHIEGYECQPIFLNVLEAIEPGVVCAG
Description: The plasmid encoding the AR-DBD+hinge was transformed into BL21 (DE3). BL21 cells designated for expression of biotin-labeled AR-DBD+hinge were co-transformed with the Pan4 AR-DBD+hinge (ampicillin selection) and biotin ligase expression vectors (pBir-Acm, chloramphenicol selection). Single colonies were grown in 2 liters of LB media supplemented with 50 μg/ml ampicillin and 35 μg/ml chloramphenicol (where appropriate) to A600 nm=0.6 before induction with 0.1 mM isopropyl β-D-1-thiogalactopyranoside for 3 h at 37° C. Cultures expressing the AR-DBD with the biotinylation sequence were simultaneously supplemented with 0.150 mM biotin during the induction step. Cell pellets were resuspended in ˜20 ml of 50 mM Tris-HCl, pH 8.0, 300 mM NaCl, 5% glycerol (Buffer A) supplemented with 10 mM imidazole and incubated with 0.1 mg/ml chicken egg white lysozyme (Sigma™) and 0.1 mM PMSF protease inhibitor for 30 min on ice. Cell lysis was achieved by sonication, followed by centrifugation at 13,000×g for 30 min at 4° C. The supernatant was rotated with 2 ml of nickel-agarose beads (GE Healthcare™) for 1 h at 4° C. and then directly loaded onto a Poly-Prep 10-ml gravity chromatography column (Bio-Rad™). Washing was performed with 2×4 ml of Buffer A supplemented with 20 mM imidazole. Pure proteins were eluted in 500-μl fractions with 2 ml of Buffer A containing 250 mM imidazole. […]

[5] = test system: AR target genes; assay: Microarray genetic profile in LNCaP cells
[6] = test system: MDV3100-resistant LNCaP cells (MR49F); assay: Cell viability (MTS) assay, MDV3100 (Enzalutamide)-resistant cells; assay type: cell-based, human; conditions: 0.1 nM R1881
Description: 1. Cell Culture: LNCaP and PC3 human prostate cancer cells were obtained from American Type Culture Collection (ATCC, Manassas, Va.) and grown in RPMI 1640 medium supplemented with 5% fetal bovine serum (FBS) (Invitrogen). […]. All cells were maintained at 37° C. in 5% CO2.
7. Cell viability assay: The PC3, LNCaP, and MDV3100-resistant cells were plated at 3,000 cells per well in RPMI 1640 containing 5% charcoal stripped serum (CSS) in a 96-well plate, treated with 0.1 nM R1881 and compounds (0-25 μM) for 96 hrs.

[7] = molecular target: T3, AR hormone binding site (recombinant wild type LBD) (Rattus norvegicus, UniProt P15207); assay: Androgen displacement assay (Polar Screen Androgen Receptor Competitor Green Assay Kit)
T3 construct: displace DHT from the ABS site of recombinant wild type LBD
T3 sequence (P15207 651-882 limits assumed): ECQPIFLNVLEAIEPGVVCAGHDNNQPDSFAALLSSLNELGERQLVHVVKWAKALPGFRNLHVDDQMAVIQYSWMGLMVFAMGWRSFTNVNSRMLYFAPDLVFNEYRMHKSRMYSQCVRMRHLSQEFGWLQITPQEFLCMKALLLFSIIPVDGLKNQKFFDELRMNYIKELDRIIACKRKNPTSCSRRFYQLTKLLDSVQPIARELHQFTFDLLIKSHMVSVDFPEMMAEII
Description: 5. Androgen displacement assay: The androgen displacement was assessed with the Polar Screen Androgen Receptor Competitor Green Assay Kit as per the instructions of the manufacturer (Lack, Axerio-Cilies et al. 2011).
The ability of the above chemicals to displace DHT from the ABS site of recombinant wild type LBD was measured using a fluorescent polarization assay (PolarScreen™, Life Technologies) at various concentrations.

[8] = molecular target: AR ligand binding domain (LBD) (Homo sapiens, UniProt P10275); assay: Biolayer interferometry (BLI) assay, small molecule binding to AR
Description: 4. Biolayer interferometry (BLI) assay: The direct reversible interaction between small molecules and the AR was measured as previously described (Lack, Axerio-Cilies et al. 2011).

[9] = molecular target: AR AF2 site (Homo sapiens, UniProt P10275); assay: SRC2-3 peptide displacement assay (fluorescence polarization); assay type: binding
Chain of AR AF2 site (P10275 664-920 limits assumed): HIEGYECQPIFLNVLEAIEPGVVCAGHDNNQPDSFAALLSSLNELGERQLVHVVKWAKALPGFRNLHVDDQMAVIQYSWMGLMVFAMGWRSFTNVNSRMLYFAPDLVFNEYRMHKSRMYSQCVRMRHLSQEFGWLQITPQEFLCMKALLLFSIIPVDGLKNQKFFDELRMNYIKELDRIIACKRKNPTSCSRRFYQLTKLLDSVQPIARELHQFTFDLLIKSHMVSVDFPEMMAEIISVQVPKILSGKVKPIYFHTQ
Description: 6. SRC2-3 peptide displacement assay: The AR AF2 specific peptide displacement was assayed as previously described.

[10] = test system: AR AF1; assay: AF1 assay (CREB and Gal4 plasmid in PC3 cells); assay type: cell-based
From the text: As there are other known binding sites in AR including the hormone binding site (HBS), activation function-2 (AF2) site, binding function 3 (BF3) and N-terminal activation function-1 (AF1) site, we utilized other assays to rule out possible binding to those sites. […] Then we used an AF1 assay to measure whether the potency of this compound comes from the inhibition of AF1 transactivation.

Brc1ncn(-c2csc(N3CCOCC3)n2)c1Br [Compound 14449]
toxic effect on animals [1]: no observable toxic effect
LNCaP xenograft tumor volume ([1]; castrated mice, 100 mg/kg): reduces tumor volume; also recorded: inhibited to levels comparable with enzalutamide treatment
serum PSA ([1]; castrated mice, 100 mg/kg): abolishes PSA production; also recorded: inhibited to levels comparable with enzalutamide treatment
stability in media [2]: fully stable in media
AR pulldown of the PSA and FKBP5 enhancer [3]: reduced AR pulldown
protein-DNA complex formation (gel shift) [4]: could not prevent protein-DNA complex formation
change of expression of genotoxin-responsive genes ([5]; 31 genes): None of the genotoxin-responsive genes showed any significant change
FKBP5 gene expression fold change vs R1881 treatment only ([5]; 14449 400 nM + 1 nM R1881, 24 h, p 0.08): 0.81
ATF3 gene expression fold change ([5]; 14449 400 nM + R1881): 0.99
CASP1 gene expression fold change ([5]; 14449 400 nM + R1881): 1.00
XPC gene expression fold change ([5]; 14449 400 nM + R1881): 1.03

c1ccc(-c2csc(N3CCOCC3)n2)cc1 [Compound 14228, 4-(4-phenylthiazol-2-yl)morpholine]
inhibition of cell growth, MDV3100/Enzalutamide-resistant cells [6]: strongly inhibits
androgen displacement from AR HBS [7]: does not displace androgen
binding in the C-terminal LBD (BLI) [8]: no binding
displacement of peptide in the AF2 binding site [9]: Neither does it displace the peptide
protein-DNA complex formation (gel shift) [4]: could not prevent protein-DNA complex formation
inhibition of CREB and Gal4 (AF1) [10]: no inhibition
